In patent publication US12134610B2, “Somatostatin subtype-2 receptor (SST2R) targeted therapeutics and uses thereof” (priority 2022, dated 2024):
Starred links: 1 amine or outer side, 2 acyl side, 3 side chain; linkers in the order of their positions; H or OH if unused. Non-standard residues stand in square brackets, D forms with d. Residues, ends and D or L forms follow the SMILES beside them. *: point of attachment. X4 = Cc1cc(F)cc(-c2cnc(NCCNC(=O)CCOCCOCCOCCOCCC(=O)*)c(-c3nc4ccc(Cl)cc4[nH]3)c2N2CCC(N)CC2)c1; X1 = Cc1cc(F)cc(-c2cnc(NCCNC(=O)CCOCCC(=O)*)c(-c3nc4ccc(Cl)cc4[nH]3)c2N2CCC(N)CC2)c1; Dolaproine = CO[C@@H]([C@@H]1CCCN1)[C@@H](C)C(=O)O; Dil = CC[C@H](C)[C@H](NC)[C@@H](CC(=O)O)OC; PABC = O=C(OCc1ccc(N[*:1])cc1)[*:2]; X2 = C[C@@H](N*)[C@@H](O)c1ccccc1; Cya = N[C@@H](CS(=O)(=O)O)C(=O)O; Cit = NC(=O)NCCC[C@H](N)C(=O)O; NMeV = CN[C@H](C(=O)O)C(C)C

Experiments:
Type in all cases: cell-based
SST2 = target: T1, SST2 (Homo sapiens, UniProt P30874); assay: PathHunter CHO-K1 SST2 internalization assay; details: PathHunter CHO-K1 SST2, 90 min; read-out: Internalization EC50
T1 construct: host or cells: PathHunter CHO-K1 SST2 cells
T1 sequence (P30874 whole entry): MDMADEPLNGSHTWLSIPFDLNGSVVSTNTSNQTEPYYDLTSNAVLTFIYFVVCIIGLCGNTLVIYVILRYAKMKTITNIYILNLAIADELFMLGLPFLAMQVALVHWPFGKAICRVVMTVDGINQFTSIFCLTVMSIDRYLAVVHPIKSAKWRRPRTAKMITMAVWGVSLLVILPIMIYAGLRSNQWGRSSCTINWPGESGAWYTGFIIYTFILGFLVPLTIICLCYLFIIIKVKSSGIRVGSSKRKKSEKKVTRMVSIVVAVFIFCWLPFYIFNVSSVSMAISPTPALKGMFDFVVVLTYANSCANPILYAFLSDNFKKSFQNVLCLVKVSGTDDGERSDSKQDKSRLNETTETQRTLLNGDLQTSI
Procedure, shortened: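 PathHunter CHO-K1 SST2 cells, seeded and grown 48 h, were exposed to 11-point 1:3 dilutions of SMDC (top final 10 uM) for 90 min at 37 C, 5% CO2. Beta-Glo luminescence was read after 60 min at room temperature. Background-corrected duplicate means were fitted by four-parameter nonlinear regression to give IC50.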

[1] = target: T2, human somatostatin receptor subtype 2 (Homo sapiens, UniProt P30874); assay: Functional cAMP assay for SSTR2 agonists (HTRF) in CHO-K1 cells; details: CHO-K1 cells stably expressing human SST2, 20 min; read-out: hSST2 cAMP Avg EC50
T2 construct: expressed in transfected cells
T2 sequence (P30874 whole entry): as above
Procedure, shortened: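 CHO-K1 cells stably expressing receptor, plated 4 days before assay, treated 20 min at 37° C. with compound (typically 0-10,000 nM final) plus IBMX and 1.6 μM NKH477 to raise cAMP. HTRF read, 665/620 nm ratio; cAMP from standard curve, EC50 fitted.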

[2] = tested on: NCI-H524 (ATCC) human small cell lung cancer cells; details: 2 h
Procedure, shortened: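 NCI-H524 cells (5,000/well) were exposed 24 h after plating to SMDC for 2 h, 11-point two-fold series from 1 uM. After washout they grew a further 70 h. Proliferation was read by CellTiter-Glo luminescence, % inhibition taken vs untreated control, and IC50 fitted by four-parameter nonlinear regression.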

| SMILES | EC50 (SST2) [nM] | EC50 [1] [nM] | EC50 [2] [nM] |
| --- | --- | --- | --- |
| CC[C@H](C)[C@@H]([C@@H](CC(=O)N1CCC[C@H]1[C@H](OC)[C@@H](C)C(=O)N[C@H](C)[C@@H](O)c1ccccc1)OC)N(C)C(=O)[C@@H](NC(=O)[C@H](C(C)C)N(C)C(=O)OCc1ccc(NC(=O)[C@H](CCCNC(N)=O)NC(=O)[C@@H](NC(=O)CCOCCOCCOCCOCCNCCNc2ncc(-c3cc(C)cc(F)c3)c(N3CCC(N)CC3)c2-c2nc3ccc(Cl)cc3[nH]2)C(C)C)cc1)C(C)C [Compound 92] | 27 | 0.56 | 110 |
| COc1cc2cc(c1Cl)N(C)C(=O)CC(OC(=O)[C@@H](C)N(C)C(=O)CCSSCCNC(=O)CNC(=O)C[C@@H](N)C(=O)NCCNc1ncc(-c3cc(C)cc(F)c3)c(N3CCC(N)CC3)c1-c1nc3ccc(Cl)cc3[nH]1)[C@]1(C)OC1[C@@H](C)C1C[C@@](O)(NC(=O)O1)[C@H](OC)/C=C/C=C(\C)C2 (stereo partly drawn) [Compound 13] | 6.3 | 0.075 | 41.8 |
| CC[C@H](C)[C@@H]([C@@H](CC(=O)N1CCC[C@H]1[C@H](OC)[C@@H](C)C(=O)N[C@H](C)[C@@H](O)c1ccccc1)OC)N(C)C(=O)[C@@H](NC(=O)[C@H](C(C)C)N(C)C(=O)OCc1ccc(NC(=O)[C@H](C)NC(=O)[C@@H](NC(=O)CCOCCOCCC(=O)NCCNc2ncc(-c3cc(C)cc(F)c3)c(N3CCC(N)CC3)c2-c2nc3ccc(Cl)cc3[nH]2)C(C)C)c(O[C@@H]2O[C@H](C(=O)O)[C@@H](O)[C@H](O)[C@H]2O)c1)C(C)C [Compound 149] | 5.2 | 0.099 | 5 |
| CC[C@H](C)[C@@H]([C@@H](CC(=O)N1CCC[C@H]1[C@H](OC)[C@@H](C)C(=O)N[C@H](C)[C@@H](O)c1ccccc1)OC)N(C)C(=O)[C@@H](NC(=O)[C@H](C(C)C)N(C)C(=O)OCc1ccc(NC(=O)[C@H](CCCNC(N)=O)NC(=O)[C@@H](CC(=O)CCOCCNCCNc2ncc(-c3cc(C)cc(F)c3)c(N3CCC(N)CC3)c2-c2nc3ccc(Cl)cc3[nH]2)C(C)C)cc1C(=O)NCCN)C(C)C [Compound 87] | 26 | 0.4 | 42 |
| CCC(C)C(C(CC(=O)N1CCCC1C(OC)C(C)C(=O)NC(C)C(O)c1ccccc1)OC)N(C)C(=O)C(NC(=O)C(C(C)C)N(C)C(=O)OCc1ccc(NC(=O)[C@H](CCCNC(N)=O)NC(=O)[C@@H](NC(=O)CCOCCC(=O)NCCNc2ncc(-c3cc(C)cc(F)c3)c(N3CCC(N)CC3)c2-c2nc3ccc(Cl)cc3[nH]2)C(C)C)cc1)C(C)C (stereo in doubt) [Compound 26] | 11.6 | 0.3 | 10.6 |
| CC[C@H](C)[C@@H]([C@@H](CC(=O)N1CCC[C@H]1[C@H](OC)[C@@H](C)C(=O)N[C@H](C)[C@@H](O)c1ccccc1)OC)N(C)C(=O)[C@@H](NC(=O)[C@H](C(C)C)N(C)C(=O)OCc1ccc(NC(=O)[C@H](CCCNC(N)=O)NC(=O)[C@@H](NC(=O)[C@H](CCC(=O)O)NC(=O)CCOCCC(=O)NCCNc2ncc(-c3cc(C)cc(F)c3)c(N3CCC(N)CC3)c2-c2nc3ccc(Cl)cc3[nH]2)C(C)C)cc1C(=O)NC)C(C)C [Compound 51] | 6.3 | 0.22 | 130 |
| CC[C@H](C)[C@@H]([C@@H](CC(=O)N1CCC[C@H]1[C@H](OC)[C@@H](C)C(=O)N[C@H](C)[C@@H](O)c1ccccc1)OC)N(C)C(=O)[C@@H](NC(=O)[C@H](C(C)C)N(C)C(=O)OCc1ccc(NC(=O)[C@H](CCCNC(N)=O)NC(=O)[C@@H](NC(=O)[C@@H](CCC(=O)O)NC(=O)[C@@H](CCC(=O)O)NC(=O)CCOCCC(=O)NCCNc2ncc(-c3cc(C)cc(F)c3)c(N3CCC(N)CC3)c2-c2nc3ccc(Cl)cc3[nH]2)C(C)C)cc1)C(C)C [Compound 103] (X1-[dE][dE]V[Cit][PABC][NMeV]V[Dil][Dolaproine]-X2) | 24 | 0.26 | 620 |
| CC[C@H](C)[C@@H]([C@@H](CC(=O)N1CCC[C@H]1[C@H](OC)[C@@H](C)C(=O)N[C@H](C)[C@@H](O)c1ccccc1)OC)N(C)C(=O)[C@@H](NC(=O)[C@H](C(C)C)N(C)C(=O)OCc1ccc(NC(=O)[C@H](CCCNC(N)=O)NC(=O)[C@@H](NC(=O)[C@H](CCC(=O)O)NC(=O)CCOCCOCCOCCOCCC(=O)NCCNc2ncc(-c3cc(C)cc(F)c3)c(N3CCC(N)CC3)c2-c2nc3ccc(Cl)cc3[nH]2)C(C)C)cc1)C(C)C [Compound 52] | 9.1 | 0.24 | 48 |
| CC[C@H](C)[C@@H]([C@@H](CC(=O)N1CCC[C@H]1[C@H](OC)[C@@H](C)C(=O)N[C@H](C)[C@@H](O)c1ccccc1)OC)N(C)C(=O)[C@@H](NC(=O)[C@H](C(C)C)N(C)C(=O)OCc1ccc(NC(=O)[C@H](CCCNC(N)=O)NC(=O)[C@@H](NC(=O)CCCCC(=O)NCCNc2ncc(-c3cc(C)cc(F)c3)c(N3CCC(N)CC3)c2-c2nc3ccc(Cl)cc3[nH]2)C(C)C)c(O[C@@H]2O[C@H](C(=O)O)[C@@H](O)[C@H](O)[C@H]2O)c1)C(C)C [Compound 63] | 16 | 0.16 | 13 |
| CC[C@H](C)[C@@H]([C@@H](CC(=O)N1CCC[C@H]1[C@H](OC)[C@@H](C)C(=O)N[C@H](C)[C@@H](O)c1ccccc1)OC)N(C)C(=O)[C@@H](NC(=O)[C@H](C(C)C)N(C)C(=O)OCc1ccc(NC(=O)[C@H](C)NC(=O)[C@@H](NC(=O)[C@H](CCC(=O)O)NC(=O)CCCCCC(=O)NCCNc2ncc(-c3cc(C)cc(F)c3)c(N3CCC(N)CC3)c2-c2nc3ccc(Cl)cc3[nH]2)C(C)C)cc1C(=O)NCCN)C(C)C [Compound 120] | 2.7 | 0.19 | 2.4 |
| CC[C@H](C)[C@@H]([C@@H](CC(=O)N1CCC[C@H]1[C@H](OC)[C@@H](C)C(=O)N[C@H](C)[C@@H](O)c1ccccc1)OC)N(C)C(=O)[C@@H](NC(=O)[C@H](C(C)C)N(C)C(=O)OCc1ccc(NC(=O)[C@H](CCCNC(N)=O)NC(=O)[C@@H](NC(=O)[C@H](CS(=O)(=O)O)NC(=O)[C@H](CCC(=O)O)NC(=O)CCOCCOCCOCCOCCC(=O)NCCNc2ncc(-c3cc(C)cc(F)c3)c(N3CCC(N)CC3)c2-c2nc3ccc(Cl)cc3[nH]2)C(C)C)cc1)C(C)C [Compound 114] (X4-E[Cya]V[Cit][PABC][NMeV]V[Dil][Dolaproine]-X2) | 10 | 0.22 | 100 |
| COc1cc2cc(c1Cl)N(C)C(=O)CC(OC(=O)[C@@H](C)N(C)C(=O)CCSSCCC(=O)NCCNc1ncc(-c3cc(C)cc(F)c3)c(N3CCC(N)CC3)c1-c1nc3ccc(Cl)cc3[nH]1)[C@]1(C)OC1[C@@H](C)C1C[C@@](O)(NC(=O)O1)[C@H](OC)/C=C/C=C(\C)C2 (stereo partly drawn) [Compound 20, (2S,5S,6S,16E,18E,20R,21S)-11-chloro-21-hydroxy-12,20-dimethoxy-2,5,9,16-tetramethyl-8,23-dioxo-4,24-dioxa-9,22-diazatetracyclo[19.3.1.1^10,^14.0^3,^5]hexacosa-10,12,14(26),16,18-pentaen-6-yl (2R)-2-[3-({2-[(2-{[4-(4-aminopiperidin-1-yl)-3-(6-chloro-1H-1,3-benzodiazol-2-yl)-5-(3-fluoro-5-methylphenyl)pyridin-2-yl]amino}ethyl)-carbamoyl]ethyl}disulfanyl)-N-methylpropanamido]propanoate] | 6.3 | 0.27 | 31.6 |
| CC[C@H](C)[C@@H]([C@@H](CC(=O)N1CCC[C@H]1[C@H](OC)[C@@H](C)C(=O)N[C@H](C)[C@@H](O)c1ccccc1)OC)N(C)C(=O)[C@@H](NC(=O)[C@H](C(C)C)N(C)C(=O)OCc1ccc(NC(=O)[C@H](CCCNC(N)=O)NC(=O)[C@@H](NC(=O)CCOCCC(=O)NCCNc2ncc(-c3cc(C)cc(F)c3)c(N3CCC(N)CC3)c2-c2nc3ccc(Cl)cc3[nH]2)C(C)C)cc1C(=O)NCCN)C(C)C [Compound 82] | 6 | 0.31 | 0.79 |
| CC[C@H](C)[C@@H]([C@@H](CC(=O)N1CCC[C@H]1[C@H](OC)[C@@H](C)C(=O)N[C@H](C)[C@@H](O)c1ccccc1)OC)N(C)C(=O)[C@@H](NC(=O)[C@H](C(C)C)N(C)C(=O)OCc1ccc(NC(=O)[C@H](CCCNC(N)=O)NC(=O)[C@@H](NC(=O)[C@H](CC(=O)O)NC(=O)[C@H](CC(=O)O)NC(=O)[C@H](CC(=O)O)NC(=O)CCOCCC(=O)NCCNc2ncc(-c3cc(C)cc(F)c3)c(N3CCC(N)CC3)c2-c2nc3ccc(Cl)cc3[nH]2)C(C)C)cc1)C(C)C [Compound 108] (X1-DDDV[Cit][PABC][NMeV]V[Dil][Dolaproine]-X2) | 53 | 1.9 | 3300 |
| CC[C@H](C)[C@@H]([C@@H](CC(=O)N1CCC[C@H]1[C@H](OC)[C@@H](C)C(=O)N[C@@H](Cc1ccccc1)C(=O)O)OC)N(C)C(=O)[C@@H](NC(=O)[C@H](C(C)C)N(C)C(=O)OCc1ccc(NC(=O)[C@H](CCCNC(N)=O)NC(=O)[C@@H](NC(=O)CCOCCOCCOCCOCCC(=O)NCCNc2ncc(-c3cc(C)cc(F)c3)c(N3CCC(N)CC3)c2-c2nc3ccc(Cl)cc3[nH]2)C(C)C)cc1)C(C)C [Compound 42] (X4-V[Cit][PABC][NMeV]V[Dil][Dolaproine]F-OH) | 8.6 | 0.12 | 57.3 |
